In one test the target is T1, Aβ1-42 (Homo sapiens, UniProt P05067).
T1 construct: dissolving Aβ1-42 or Tau-RD3 (Tau repeat domain 3) monomers in DMSO
Nature of the test: Amyloid-beta disaggregation test by Thioflavin-T analysis. Type of test: biochemical. The settings on record: for disaggregation effect for amyloid-beta protein aggregates: statement in words summarising the Thioflavin-T results. The method, boiled down: (§1)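 Aβ1-42 (50 µM) or Tau-RD3 (35 µM) pre-aggregated 24 h at 37 °C, then incubated with compound (500 µM down to 0 µM, serial dilution) for 48 h at 37 °C. Read-out by Thioflavin-T (5 µM solution, glycine buffer pH 8.5) fluorescence, ex 450/em 485 nm. Values expressed relative to 72 h aggregated protein-only control (100%).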

Test [1] concerns the target Tau-RD3 (Tau repeat domain 3) (Homo sapiens, UniProt P10636). Nature of the test: Tau disaggregation test by Thioflavin-T analysis. As to conditions: for EC50: Tau-RD3 35 µM aggregated 24 hours, then compound 0 - 500 µM for 48 hours at 37 °C, concentration disaggregating 50 % of aggregates vs control, read-out: EC50 (µM) Tau; for disaggregation effect for tau protein aggregates: statement in words summarising the Thioflavin-T results. Format: biochemical. The method, boiled down:
as §1

For test [2], the system named is amyloid-beta oligomers in HEK293 cells transfected with the APP E693Δ mutant plasmid. As to the kind of experiment: Amyloid-beta oligomer change by dot blot (A11 antibody) in an amyloid-beta oligomer-overexpressing cell line. Format: cell-based. The settings on record: compound 10 µM, 48 hours, dot blot of cell lysate, relative to control group (FIG. 1). From the text: To observe the change in intracellular amyloid-beta oligomers, a plasmid with the APP E693Δ (Osaka mutation) mutant, which is associated with early-onset Alzheimer's disease and is known to induce intracellular amyloid-beta oligomer formation, was obtained from GenScript. This plasmid was transfected into HEK293 cells using a liposome-mediated method (Lipofectamine) to prepare a cell line that overexpresses intracellular amyloid-beta oligomers.
HEK293 cells transfected with the APP E693Δ mutant plasmid were incubated for 48 hours in a 37 °C, 5 % CO2 incubator, and then treated with the compounds prepared in 1.1, which were diluted to a concentration of 10 µM in the cell culture medium. The untransfected control group was treated with 0.1 % DMSO, the same as the compound-treated group.
The compound-treated cell lines were again incubated for 48 hours in a 37 °C, 5 % CO2 incubator and then used in the experiment.
After incubating the control and compound-treated cells from Example 2.2, a dot blot was performed using the cell lysate. A 3.5 µg sample was spotted onto a nitrocellulose membrane and air-dried, and then the membrane to which the sample was adhered was blocked with 5 % skim milk. After incubating with the amyloid oligomer antibody A11 to allow binding, the membrane was washed 4 times with TBST, and the secondary antibody was bound. The image signal was measured using a chemiluminescent substrate.
It was confirmed that the amount of amyloid-beta oligomers was reduced by each compound treatment compared to the control group.

[3] abbreviates: Aβ1-42 50 µM aggregated 24 hours, then compound 0 - 500 µM for 48 hours at 37 °C, concentration disaggregating 50 % of aggregates vs control, read-out: EC50 (µM) Aβ.

Where two headings read alike, the source gives them in different places.

Sequence of Tau-RD3 (Tau repeat domain 3) (P10636 623-653 limits assumed): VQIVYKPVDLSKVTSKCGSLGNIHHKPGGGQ
T1 sequence (P05067 672-713 limits assumed): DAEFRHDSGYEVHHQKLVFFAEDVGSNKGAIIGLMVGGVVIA

For the molecule `Cc1ncsc1C1=C(c2ccc(N3CCN(C)CC3)cc2)C(=O)c2cc(N3CCN(C)CC3)ccc21` [Compound 75, 6-(4-methylpiperazin-1-yl)-2-(4-(4-methylpiperazin-1-yl)phenyl)-3-(4-methylthiazol-5-yl)-1H-inden-1-one], the concentration for a half-maximal effect (EC50) (at Aβ1-42 (setting [3]); in test [1]) was less than 20 µM each time. Further, the “amyloid-beta oligomer reduction effect” value in test [2] is on record as “reduction effect”.

With `Cc1cccc(C)c1C1=C(c2ccccc2)C(=O)c2cc(N3CCN(C)CC3)ccc21` [Compound 72, 3-(2,6-dimethylphenyl)-6-(4-methylpiperazin-1-yl)-2-phenyl-1H-inden-1-one], at Aβ1-42 (setting [3]), the concentration for a half-maximal effect (EC50) (in general, the concentration giving half of the maximal effect) is less than 20 µM. Further, on Aβ1-42, the “disaggregation effect for amyloid-beta protein aggregates” value is on record as “remarkably excellent disaggregation effect”. Also, in test [1], the concentration giving a half-maximal response (EC50) was less than 20 µM and the “disaggregation effect for tau protein aggregates” value is reported as “remarkably excellent disaggregation effect”. Also, in test [2], the “amyloid-beta oligomer reduction effect” value was “reduction effect”.

As to `Cc1ncsc1C1=C(c2ccc(N3CCN(C)CC3)cc2)C(=O)c2cc(Cl)ccc21` [Compound 74-7, 6-chloro-2-(4-(4-methylpiperazin-1-yl)phenyl)-3-(4-methylthiazol-5-yl)-1H-inden-1-one], the EC50 (on Aβ1-42 (setting [3]); in test [1]) was less than 20 µM in each case. For the same molecule, the “disaggregation effect for amyloid-beta protein aggregates” value on Aβ1-42 is recorded as “remarkably excellent disaggregation effect”. Moreover, the “disaggregation effect for tau protein aggregates” value in test [1] is recorded as “remarkably excellent disaggregation effect”. Further, in test [2], the “amyloid-beta oligomer reduction effect” value was “reduction effect”.

For `Cc1ncsc1C1=C(c2cccnc2)C(=O)c2cc(N(C)CCCc3ccccc3)ccc21` [Compound 65, 6-(methyl(3-phenylpropyl)amino)-3-(4-methylthiazol-5-yl)-2-(pyridin-3-yl)-1H-inden-1-one], on Aβ1-42, the “disaggregation effect for amyloid-beta protein aggregates” value is listed as “remarkably excellent disaggregation effect”. In test [1], the EC50 is less than 20 µM and the “disaggregation effect for tau protein aggregates” value is recorded as “remarkably excellent disaggregation effect”. Besides, the “amyloid-beta oligomer reduction effect” value in test [2] is given as “reduction effect”.

`CN1CCN(c2ccc3c(c2)C(=O)C(c2ccccc2)=C3c2ccccc2)CC1` [Compound 13, 6-(4-methylpiperazin-1-yl)-2,3-diphenyl-1H-inden-1-one]: on Aβ1-42 (setting [3]), the EC50 was less than 20 µM. Further, the “disaggregation effect for amyloid-beta protein aggregates” value at Aβ1-42 is “remarkably excellent disaggregation effect”. Also, in test [1], the EC50 was less than 20 µM and the “disaggregation effect for tau protein aggregates” value was “remarkably excellent disaggregation effect”. Moreover, the “amyloid-beta oligomer reduction effect” value in test [2] is “reduction effect”.

Turning to `Cc1ncsc1C1=C(c2cccnc2)C(=O)c2cc(NC3CC3)ccc21` [Compound 63, 6-(cyclopropylamino)-3-(4-methylthiazol-5-yl)-2-(pyridin-3-yl)-1H-inden-1-one], the EC50 on Aβ1-42 (setting [3]) is less than 20 µM. For the same molecule, on Aβ1-42, the “disaggregation effect for amyloid-beta protein aggregates” value is “remarkably excellent disaggregation effect”. In addition, in test [1], the EC50 is less than 20 µM and the “disaggregation effect for tau protein aggregates” value is “remarkably excellent disaggregation effect”. In addition, in test [2], the “amyloid-beta oligomer reduction effect” value is reported as “reduction effect”.

Take `CN1CCN(c2ccc(C3=C(c4ccccc4)c4ccccc4C3=O)cc2)CC1` [Compound 90, 2-(4-(4-methylpiperazin-1-yl)phenyl)-3-phenyl-1H-inden-1-one]: the EC50 on Aβ1-42 (setting [3]) was less than 20 µM. Moreover, at Aβ1-42, the “disaggregation effect for amyloid-beta protein aggregates” value is given as “remarkably excellent disaggregation effect”. In test [1], the EC50 is less than 20 µM and the “disaggregation effect for tau protein aggregates” value is listed as “remarkably excellent disaggregation effect”. The “amyloid-beta oligomer reduction effect” value in test [2] is given as “reduction effect”.

Turning to `Cc1ncsc1C1=C(c2ccc(N3CCN(C)CC3)cc2)C(=O)c2cc(N3CCN(CCO)CC3)ccc21` [Compound 74, 6-(4-(2-hydroxyethyl)piperazin-1-yl)-2-(4-(4-methylpiperazin-1-yl)phenyl)-3-(4-methylthiazol-5-yl)-1H-inden-1-one], the 50% effective concentration (EC50) (at Aβ1-42 (setting [3]); in test [1]) was less than 20 µM each time. The “amyloid-beta oligomer reduction effect” value in test [2] is reported as “reduction effect”.

With `Cc1ncsc1C1=C(c2cnn(C3CCN(C)CC3)c2)C(=O)c2cc(OCCCc3ccccc3)ccc21` [Compound 30, 2-(1-(1-methylpiperidin-4-yl)-1H-pyrazol-4-yl)-3-(4-methylthiazol-5-yl)-6-(3-phenylpropoxy)-1H-inden-1-one], the half-maximal effective concentration (EC50) (at Aβ1-42 (setting [3]); in test [1]) was less than 20 µM each time. Also, the “amyloid-beta oligomer reduction effect” value in test [2] was “reduction effect”.

Consider `O=C1C(c2ccccc2)=C(c2ccccc2)c2ccc(N3CCN(CCO)CC3)cc21` [Compound 70, 6-(4-(2-hydroxyethyl)piperazin-1-yl)-2,3-diphenyl-1H-inden-1-one], for which the concentration for a half-maximal effect (EC50) at Aβ1-42 (setting [3]) is less than 20 µM. Moreover, the “disaggregation effect for amyloid-beta protein aggregates” value on Aβ1-42 is on record as “remarkably excellent disaggregation effect”. Further, in test [1], the concentration for a half-maximal effect (EC50) is less than 20 µM and the “disaggregation effect for tau protein aggregates” value is on record as “remarkably excellent disaggregation effect”. Besides, the “amyloid-beta oligomer reduction effect” value in test [2] was “reduction effect”.

With `Cc1ncsc1C1=C(c2ccn(C3CCN(C)CC3)n2)C(=O)c2cc(OCCCc3ccccc3)ccc21` [Compound 29, 2-(1-(1-methylpiperidin-4-yl)-1H-pyrazol-3-yl)-3-(4-methylthiazol-5-yl)-6-(3-phenylpropoxy)-1H-inden-1-one], the EC50 (at Aβ1-42; in test [1]) was more than 250 µM each time.

Consider `COc1ccc2c(c1)C(=O)C(c1cccnc1)=C2c1cnn(C)c1` [Compound 42-6, 6-methoxy-3-(1-methyl-1H-pyrazol-4-yl)-2-(pyridin-3-yl)-1H-inden-1-one], for which the concentration giving a half-maximal response (EC50) (at Aβ1-42 (setting [3]); in test [1]) was 20 to 100 µM throughout.

Consider `O=C1C(c2ccccc2)=C(c2ccc(CN3CCOCC3)cc2)c2ccccc21` [Compound 16, 3-(4-(morpholinomethyl)phenyl)-2-phenyl-1H-inden-1-one], for which the EC50 is 20 to 100 µM on Aβ1-42 (setting [3]) and more than 250 µM in test [1].

On to `Cc1ncsc1C1=C(c2cccnc2)C(=O)c2cc(NC3CCCN(c4ccccc4)C3)ccc21` (centres unmarked) [Compound 58, 3-(4-methylthiazol-5-yl)-6-((1-phenylpiperidin-3-yl)amino)-2-(pyridin-3-yl)-1H-inden-1-one], for which the EC50 was less than 20 µM at Aβ1-42 (setting [3]) and more than 250 µM in test [1].

With `CN1CCN(c2ccc3c(c2)C(=O)C(c2cccc(N4CCOCC4)c2)=C3c2cccc(N3CCOCC3)c2)CC1` [Compound 80, 6-(4-methylpiperazin-1-yl)-2,3-bis(3-morpholinophenyl)-1H-inden-1-one], the EC50 at Aβ1-42 (setting [3]) was in the range of 20 to 100 µM; in test [1] it was 100 to 250 µM.

Consider `Cc1ncsc1C1=C(c2cccnc2)C(=O)c2cc(Oc3ccccc3)ccc21` [Compound 66, 3-(4-methylthiazol-5-yl)-6-phenoxy-2-(pyridin-3-yl)-1H-inden-1-one], for which the EC50 at Aβ1-42 (setting [3]) was less than 20 µM. Moreover, on Aβ1-42, the “disaggregation effect for amyloid-beta protein aggregates” value is on record as “remarkably excellent disaggregation effect”. In test [1], the EC50 was less than 20 µM and the “disaggregation effect for tau protein aggregates” value was “remarkably excellent disaggregation effect”.

On to `O=C1C(c2ccccc2)=C(c2ccccc2)c2ccccc21` [Compound 1, 2,3-diphenylinden-1-one], for which the half-maximal effective concentration (EC50) on Aβ1-42 (setting [3]) was less than 20 µM; in test [1] it was more than 250 µM.

As for `CN1CCN(c2ccc(C3=C(c4ccccc4)C(=O)c4ccccc43)cc2)CC1` [Compound 94, 3-(4-(4-methylpiperazin-1-yl)phenyl)-2-phenyl-1H-inden-1-one], the EC50 at Aβ1-42 (setting [3]) is less than 20 µM; in test [1], 20 to 100 µM.

As to `Cc1ncsc1C1=C(c2cccnc2)C(=O)c2cc(NC3CCN(C)CC3)ccc21` [Compound 51, 6-((1-methylpiperidin-4-yl)amino)-3-(4-methylthiazol-5-yl)-2-(pyridin-3-yl)-1H-inden-1-one], the EC50 on Aβ1-42 (setting [3]) is less than 20 µM; in test [1] it was 20 to 100 µM.

Regarding `COCCOc1ccc2c(c1)C(=O)C(c1cccnc1)=C2c1scnc1C` [Compound 37, 6-(2-methoxyethoxy)-3-(4-methylthiazol-5-yl)-2-(pyridin-3-yl)-1H-inden-1-one], the EC50 (at Aβ1-42 (setting [3]); in test [1]) was 20 to 100 µM each time.

Source of the values: patent publication EP4745117A1, “NOVEL INDENONE DERIVATIVE AND USE THEREOF” (Amyloid Solution Inc., priority 2023, dated 2025).
